This note sets out measurements from patent US4691024A, “New mitomycin derivatives, preparation thereof and pharmaceutical compositions containing them” (priority 1984, dated 1987).

Values after ≈ are worked out from the molar mass of the structure shown.

One data set deals with Sarcoma 180 solid tumour. Description: Anti-tumour activity against Sarcoma 180 solid tumour in mice. The data set is classed as in vivo. Particulars: Mus musculus, sc, 168 h; Sarcoma 180 s.c. in ddy mice; into tail vein 24 hours after implantation; volume at 7 days; read-out: ED50 (dose reducing tumour volume to 50% of control). As for the experimental part:
(§1) The antitumour-activity and toxicity of various compounds of formula (I) were investigated as indicated below.
(1) Effect against Sarcoma 180 solid tumour cells
5×10^6 cells of Sarcoma 180 solid tumour were intraperitoneally implanted into ddy mice. 7 days later, ascites cells were sampled. The cells were washed once with a sterilized physiological solution of sodium chloride and were used to prepare a cell suspension containing 5×10^7 cells per ml. On each occasion, 0.1 ml of the cell suspension was subcutaneously implanted into the right arm pit of a male mouse (ddy strain; body weight 20±2 g). The test compound was dissolved in a physiological solution of sodium chloride with or without addition of Tween 80 and was administered into the tail vein of each mouse of a group consisting of 5 mice at a dose of 0.1-0.2 ml, 24 hours after the implantation of the tumour cells.
The anti-tumour activity was determined in the following manner. 7 days after the implantation, the major axis (a) and the minor axis (b) of the tumour were measured to calculate a value of "a×b^2 /2" which corresponds to the volume of the tumour. The anti-tumour activity was expressed by the ratio of the volume of the tumours (T) of the group of animals administered with the test compound to the corresponding volume of tumours (c) of the untreated animals.
(2) Determination of ED50
(The amount needed for reducing the volume of Sarcoma 180 solid tumours in mice to 50% on the basis of the corresponding volume of Sarcoma solid tumours in control untreated animals). On graph paper, T/C (the ratio of the volume of tumours of treated and control animals) was indicated by an arithmetic scale on the longitudinal axis and the administered amount of the test compound was indicated by a logarithmic scale on the lateral axis.
The relationship between the dose and T/C was shown by a straight line determined by the method of least squares, from which a dose corresponding to T/C of 0.5 was obtained.

In data set [1] the test system is Proteus vulgaris ATCC 6897. Description: Antibacterial activity, minimum growth inhibitory concentration by agar dilution method (PV). The data set is classed as cell-based. Particulars: ATCC6897, pH 7, read-out: MIC, Proteus vulgaris (PV). As for the experimental part: (§2) The various compounds of formula (I) of Examples 1-26 were tested for antibacterial activity against 6 microorganisms. […]. In this table, the following symbols are used:
PV: Proteus vulgaris ATCC 6897
A general note: In agar dilution the substance is mixed into plates at graded concentrations.

In data set [2] the test system is Staphylococcus aureus ATCC 6538P. Description: Antibacterial activity, minimum growth inhibitory concentration by agar dilution method (SA). The data set is classed as cell-based. Particulars: ATCC6538P, pH 7, read-out: MIC, Staphylococcus aureus (SA). As for the experimental part:
as §2
SA: Staphylococcus aureus ATCC 6538P

The subject of a further data set is peripheral leucocytes. The data set is described as follows: Effect on the peripheral leucocytes number in Sarcoma 180 bearing mice. The data set is classed as in vivo. Particulars: Sarcoma 180 bearing ddy mice; intraperitoneal 24 hours after implantation; blood 4 days later. As for the experimental part: as §1
(4) Effect on the peripheral leucocytes number
Sarcoma 180 solid tumour cells (5×10^6) were subcutaneously implanted into the right arm pit of each mouse (body weight 20±2 g) of a group consisting of 5 male mice (ddy strain). 24 hours after implantation, a test compound was intraperitoneally administered to each animal. 4 days later, blood (each 0.02 ml) was collected from the suborbital plexus vein of each tumour-carrying animal. The collected sample of the blood was dispersed in 9.98 ml of Cell-Kit Seven solution. One drop of saponin solution was added to the sample to dissolve erythrocytes, and then a microcell counter was used to measure the number of leucocytes. On a graph paper, the number of leucocytes was indicated on the y-axis by an arithmetic scale and the dose of the test compound was indicated on the x-axis by a logarithmic scale. The relationship between the number of peripheral leucocytes and the dosage of the test compound was plotted and the dosage corresponding to 4000 peripheral leucocytes/mm^3 (about 1/2 the number of leucocytes of normal mice) was obtained. This value is denoted in Table 5 by WBC4000.

Data set [3] in a line: Acute toxicity in mice (LD50, Behrens Kerber's method). Particulars: mouse, in vivo, ip; ddy mice, single intraperitoneal administration, 14 days observation. The protocol:
as §1
Each animal of the test group consisting of 5 ddy mice was administered intraperitoneally once with a test compound. […] The LD50 was determined by Behrens Kerber's method.

Data set [4] concerns Streptococcus faecalis ATCC 10541. The data set is described as follows: Antibacterial activity, minimum growth inhibitory concentration by agar dilution method (SF). The data set is classed as cell-based. Particulars: Enterococcus faecalis, ATCC10541, pH 7, read-out: MIC, Streptococcus faecalis (SF). The protocol: as §2
SF: Streptococcus faecalis ATCC 10541

The test system of another data set is Bacillus subtilis 10707. Description: Antibacterial activity, minimum growth inhibitory concentration by agar dilution method (BS). The data set is classed as cell-based. Particulars: Bacillus subtilis, 10707, pH 7, read-out: MIC, Bacillus subtilis (BS). The protocol:
as §2
BS: Bacillus subtilis 10707

Data set [5] relates to Shigella sonnei ATCC 9290. Description: Antibacterial activity, minimum growth inhibitory concentration by agar dilution method (SS). The data set is classed as cell-based. Particulars: ATCC9290, pH 7, read-out: MIC, Shigella sonnei (SS). As for the experimental part:
as §2
SS: Shigella sonnei ATCC 9290

Data set [6] concerns Klebsiella pneumoniae ATCC 10031. The data set is described as follows: microbe, parasite or virus in culture. The data set is classed as cell-based. Particulars: ATCC10031, pH 7, read-out: MIC, Klebsiella pneumoniae (KP). From the text: In this table, the following symbols are used:
KP: Klebsiella pneumoniae ATCC 10031

Turning to `CC1=C(NCCSSC[C@H](N)C(=O)NCC(=O)O)C(=O)C2=C(C1=O)N1C[C@H]3[C@H](N3C)[C@]1(O)[C@H]2COC(N)=O` (stereo partly drawn) [Compound 21, 7-N-[2-[(Glycino-L-cystein-S-yl)thio]ethyl]mitomycin D], in the data set on Sarcoma 180 solid tumour, the ED50 (usually the dose at which the effect has come halfway, by size or by number of responders) was 61.1 mg/kg. Also, the MIC in [1] turned out to be 13 µg/mL (≈ 22.8 µM); in data set [2] it was 13 µg/mL (≈ 22.8 µM); in data set [4], 13 µg/mL (≈ 22.8 µM); in the data set with Bacillus subtilis 10707 it was 3.1 µg/mL (≈ 5.43 µM). The “WBC4000 (dosage corresponding to 4000 peripheral leucocytes/mm^3)” value (“WBC4000” below) in the data set on peripheral leucocytes is given as 83.9 mg/kg. For the same molecule, the LD50 (as a rule, the dose at which mortality reaches 50%) at 336 h in data set [3] was more than 200 mg/kg.
`CC1=C(NCCSSC[C@H](N)C(=O)O)C(=O)C2=C(C1=O)N1C[C@H]3[C@H](N3C)[C@]1(O)[C@H]2COC(N)=O` (stereo partly drawn) [Compound 15, 7-N-[2-[(L-Cystein-S-yl)thio]ethyl]mitomycin D]: the ED50 in the data set on Sarcoma 180 solid tumour was found to be 54 mg/kg. For the same molecule, the MIC was found to be 13 µg/mL (≈ 25.3 µM) in data set [1], 13 µg/mL (≈ 25.3 µM) in data set [2], 13 µg/mL (≈ 25.3 µM) in data set [4] and 6.3 µg/mL (≈ 12.3 µM) with Bacillus subtilis 10707. Further, the “WBC4000” value in the data set with peripheral leucocytes is listed as 81.9 mg/kg. In [3], the LD50 at 336 h amounted to 135 mg/kg.
In the case of `COc1ccc(SSCCNC2=C(C)C(=O)C3=C(C2=O)[C@@H](COC(N)=O)[C@@]2(OC)[C@H]4N[C@H]4CN32)cc1` [Compound 9, 7-N-[2-(4-Methoxyphenyldithio)ethyl]mitomycin C], the ED50 in the data set with Sarcoma 180 solid tumour is 7.4 mg/kg. Moreover, the MIC in [5] was 40 µg/mL (≈ 75.1 µM); in [6] it was 0.63 µg/mL (≈ 1.18 µM); in data set [1], 1.3 µg/mL (≈ 2.44 µM); in data set [2], less than 0.02 µg/mL; in data set [4], less than 0.02 µg/mL; in the data set on Bacillus subtilis 10707 it was less than 0.02 µg/mL. In addition, the “WBC4000” value in the data set on peripheral leucocytes was more than 10 mg/kg. Further, the LD50 at 336 h in data set [3] came out at 5.3 mg/kg.
For the molecule `CO[C@@]12[C@H](COC(N)=O)C3=C(C(=O)C(C)=C(NCCSSc4ccc(Cl)cc4)C3=O)N1C[C@@H]1N[C@@H]12` [Compound 11, 7-N-[2-(4-Chlorophenyldithio)ethyl]mitomycin C], the ED50 with Sarcoma 180 solid tumour is 4.5 mg/kg. The MIC in data set [5] is 10 µg/mL (≈ 18.6 µM); in [6], 0.63 µg/mL (≈ 1.17 µM); in data set [1], 0.63 µg/mL (≈ 1.17 µM); in [2], less than 0.01 µg/mL; in data set [4], 0.04 µg/mL (≈ 0.0745 µM); in the data set with Bacillus subtilis 10707 it was less than 0.01 µg/mL. Further, in the data set on peripheral leucocytes, the “WBC4000” value is listed as more than 10 mg/kg. In addition, the LD50 at 336 h in data set [3] was found to be 9 mg/kg.
With `CO[C@@]12[C@H](COC(N)=O)C3=C(C(=O)C(C)=C(NCCSSc4ccc(N)cc4)C3=O)N1C[C@@H]1N[C@@H]12` [Compound 4, 7-N-[2-(4-aminophenyldithio)ethyl]mitomycin C], the ED50 in the data set on Sarcoma 180 solid tumour came to 5.1 mg/kg. Besides, the MIC in data set [5] is more than 20 µg/mL; in [6], 1.3 µg/mL (≈ 2.51 µM); in data set [1], 5 µg/mL (≈ 9.66 µM); in data set [2], 0.08 µg/mL (≈ 0.155 µM); in [4], 0.04 µg/mL (≈ 0.0773 µM); with Bacillus subtilis 10707, 0.02 µg/mL (≈ 0.0386 µM). In addition, in the data set on peripheral leucocytes, the “WBC4000” value is recorded as more than 10 mg/kg. Further, the LD50 at 336 h in [3] is 9 mg/kg.
Take `CC(=O)Nc1ccc(SSCCNC2=C(C)C(=O)C3=C(C2=O)[C@H](COC(N)=O)[C@@]2(O)[C@@H]4[C@H](CN32)N4C)cc1` (stereo partly drawn) [Compound 7, 7-N-[2-(4-Acetamidophenyldithio)ethyl]mitomycin D]: the ED50 in the data set on Sarcoma 180 solid tumour is more than 25 mg/kg. The MIC was more than 40 µg/mL in data set [1], 10 µg/mL (≈ 17.9 µM) in [2], 5 µg/mL (≈ 8.93 µM) in data set [4] and 5 µg/mL (≈ 8.93 µM) with Bacillus subtilis 10707. The “WBC4000” value with peripheral leucocytes stood at 45.5 mg/kg. In [3], this molecule displayed an LD50 at 336 h of 46.3 mg/kg.
Turning to `CO[C@@]12[C@H](COC(N)=O)C3=C(C(=O)C(C)=C(NCCSSC(C)(C)[C@H](N)C(=O)O)C3=O)N1C[C@@H]1N[C@@H]12` [Compound 18, 7-N-[2-[(L-Pencillamin-S-yl)thio]ethyl]mitomycin C], in the data set with Sarcoma 180 solid tumour, the ED50 was determined as 9.9 mg/kg. Further, the MIC in data set [5] is more than 20 µg/mL; in [6], 0.08 µg/mL (≈ 0.148 µM); in data set [1] it was 0.31 µg/mL (≈ 0.572 µM); in [2], 0.31 µg/mL (≈ 0.572 µM); in data set [4] it was 0.63 µg/mL (≈ 1.16 µM); in the data set on Bacillus subtilis 10707 it was 0.08 µg/mL (≈ 0.148 µM). Moreover, in the data set with peripheral leucocytes, the “WBC4000” value is reported as 18.8 mg/kg. The 50% lethal dose (LD50) at 336 h in data set [3] turned out to be 30 mg/kg.
